PMC7872314, “Modeling Bioavailable Concentrations in Zebrafish Cell Lines and Embryos Increases the Correlation of Toxicity Potencies across Test Systems” (Environmental Science & Technology, 2020)
Like-named read-outs stand apart in the source and are kept apart here.

Legend:
[1] = tested on: ZF4 (fibroblasts) cell line; experiment: MTS assay (MTS/BCA multiplex), NAD(P)H metabolism; format: cell-based, zebrafish (Danio rerio); conditions: Danio rerio, Fibroblast
zebrafish embryos [2] = experiment: animal or person; format: in vivo, zebrafish (Danio rerio); conditions: for EC50: Danio rerio
[3] = tested on: zebrafish cell lines vs zebrafish embryo; experiment: Potency ratios IC50;x/EC50;x (cytotoxicity assays vs mFET); parameters: species or system zebrafish (Danio rerio); conditions: median over cytotoxicity endpoints, nominal, 48 h cells / 48 hpf mFET
[4] = tested on: ZF4 (fibroblasts) cell line; experiment: Neutral red, absorbance (NRa), AB/CFDA/NR multiplex, lysosome stability; format: cell-based, zebrafish (Danio rerio); conditions: Danio rerio, Fibroblast
[5] = tested on: ZF4 (fibroblasts) cell line; experiment: ATP assay (ATP/LDH multiplex), ATP metabolism; format: cell-based, zebrafish (Danio rerio); conditions: Danio rerio, Fibroblast
[6] = tested on: ZF4 (fibroblasts) cell line; experiment: BCA assay (MTS/BCA multiplex), protein amount; format: cell-based, zebrafish (Danio rerio); conditions: Danio rerio, Fibroblast
[7] = tested on: ZFL (hepatocytes) cell line; experiment: cells; format: cell-based, zebrafish (Danio rerio); conditions: Danio rerio, Hepatocyte
ZF4 and ZFL cell lines = experiment: Cytotoxicity assays, all endpoints, both cell lines (mean/range); format: cell-based, zebrafish (Danio rerio); conditions: 48 h, mean of all cytotoxicity endpoints (without LDH) in ZF4 and ZFL
[8] = tested on: ZFL (hepatocytes) cell line; experiment: cells; format: cell-based, zebrafish (Danio rerio); conditions: Danio rerio, Hepatocyte; remark: listed apart in the source
[9] = tested on: ZF4 (fibroblasts) cell line; experiment: Neutral red, fluorescence (NRf), AB/CFDA/NR multiplex, lysosome stability; format: cell-based, zebrafish (Danio rerio); conditions: Danio rerio, Fibroblast
[10] = tested on: diverse mammalian cell assay results; parameters: method as in https://comptox.epa.gov/dashboard/; conditions: COMPTOX; ref https://comptox.epa.gov/dashboard/; read-out: median AC50; cited from earlier work
[11] = tested on: ZFL (hepatocytes) cell line; experiment: cells; format: cell-based, zebrafish (Danio rerio); conditions: Danio rerio, Hepatocyte; remark: listed apart in the source
[12] = tested on: ZFL (hepatocytes) cell line; experiment: cells; format: cell-based, zebrafish (Danio rerio); conditions: Danio rerio, Hepatocyte; remark: listed apart in the source
[13] = tested on: ZF4 (fibroblasts) cell line; experiment: CFDA endpoint of AB/CFDA/NR multiplex, membrane stability; format: cell-based, zebrafish (Danio rerio); conditions: Danio rerio, Fibroblast
[14] = tested on: ZFL (hepatocytes) cell line; experiment: cells; format: cell-based, zebrafish (Danio rerio); conditions: Danio rerio, Hepatocyte; remark: listed apart in the source
[15] = tested on: ZF4 (fibroblasts) cell line; experiment: alamarBlue (AB) endpoint of AB/CFDA/NR multiplex, cellular respiration; format: cell-based, zebrafish (Danio rerio); conditions: Danio rerio, Fibroblast
[16] = tested on: ZFL (hepatocytes) cell line; experiment: cells; format: cell-based, zebrafish (Danio rerio); conditions: Danio rerio, Hepatocyte; remark: listed apart in the source
zebrafish embryos [17] = tested on: zebrafish embryos; parameters: method as in earlier work; conditions: nominal, cited from earlier work
[18] = ref Comptox, PubChem or DrugBank; cited from earlier work
[19] = tested on: ZFL (hepatocytes) cell line; experiment: cells; format: cell-based, zebrafish (Danio rerio); conditions: Danio rerio, Hepatocyte; remark: listed apart in the source

For `CO[C@H]1C[C@H](O[C@H]2[C@H](C)O[C@@H](O[C@@H]3/C(C)=C/C[C@@H]4C[C@@H](C[C@]5(C=C[C@H](C)[C@@H](C6CCCCC6)O5)O4)OC(=O)[C@@H]4C=C(C)[C@@H](O)[C@H]5OC/C(=C\C=C\[C@@H]3C)[C@]54O)C[C@@H]2OC)O[C@@H](C)[C@@H]1O` [Doramectin, doramectin], the IC50 ([1]; MTS - ZF4, log10 of IC50, read-out: LogIC50 (converted)) was 12.3 µM, the IC50 ([1]; MTS - ZF4, read-out: IC50) was 12.3 µM and the IC50 ([1]; ZF4, 48 h exposure, nominal, log10, read-out: logIC50 (log10 IC50;nom) MTS (converted)) was 12.3 µM. For the same compound, the IC50 ([1]; ZF4, 48 h exposure, nominal, read-out: IC50;nom MTS) was 12.3 µM, the “difference in toxicity (EC50;nom) between 48 hpf and 144 hpf” value (zebrafish embryos [2]; 48 hpf time point less sensitive than 144 hpf) was “marginally more toxic” and the “log EC50;nom (mFET)” value (zebrafish embryos [2]; 48 hpf, nominal, log10, listed as Dor) was -5.914 M. The EC50 (zebrafish embryos [2]; 48 hpf, nominal, log10, read-out: log EC50;nom (mFET) (converted)) was 1.23 µM, the EC50 (zebrafish embryos [2]; 48 hpf, nominal, read-out: EC50;nom (embryo)) was 1.1 µg/mL and the EC50 (zebrafish embryos [2]; read-out: EC50 48hpf) was 1.22 µM. The EC50 (zebrafish embryos [2]; read-out: EC50;nom (mFET)) was 1.22 µM, the “potency ratio IC50;nom/EC50;nom (median)” value [3] was 7.68 and the IC50 ([4]; NR-abs - ZF4, log10 of IC50, read-out: LogIC50 (converted)) was 14.6 µM. The IC50 ([4]; NR-abs - ZF4, read-out: IC50) was 14.6 µM, the IC50 ([4]; ZF4, 48 h exposure, nominal, log10, read-out: logIC50 (log10 IC50;nom) NRa (converted)) was 14.5 µM and the IC50 ([4]; ZF4, 48 h exposure, nominal, read-out: IC50;nom NRa) was 14.6 µM. The IC50 ([4]; ZF4 cell line, NRa endpoint, nominal, read-out: IC50;nom) was 13.1 µg/mL, the IC50 ([5]; ATP - ZF4, log10 of IC50, read-out: LogIC50 (converted)) was 4.38 µM and the IC50 ([5]; ATP - ZF4, read-out: IC50) was 4.38 µM. It also gave an IC50 ([5]; ZF4, 48 h exposure, nominal, log10, read-out: logIC50 (log10 IC50;nom) ATP (converted)) of 4.37 µM, an IC50 ([5]; ZF4, 48 h exposure, nominal, read-out: IC50;nom ATP) of 4.38 µM and an IC50 ([6]; BCA - ZF4, log10 of IC50, read-out: LogIC50 (converted)) of 9.03 µM. It also gave an IC50 ([6]; BCA - ZF4, read-out: IC50) of 9.03 µM, an IC50 ([6]; ZF4, 48 h exposure, nominal, log10, read-out: logIC50 (log10 IC50;nom) BCA (converted)) of 9.12 µM and an IC50 ([6]; ZF4, 48 h exposure, nominal, read-out: IC50;nom BCA) of 9.03 µM. The IC50 ([7]; MTS - ZFL, log10 of IC50, read-out: LogIC50 (converted)) was 9.41 µM, the IC50 ([7]; MTS - ZFL, read-out: IC50) was 9.42 µM and the IC50 ([7]; ZFL, 48 h exposure, nominal, log10, read-out: logIC50 (log10 IC50;nom) MTS (converted)) was 9.33 µM. For the same compound, the IC50 ([7]; ZFL, 48 h exposure, nominal, read-out: IC50;nom MTS) was 9.42 µM, the IC50 (ZF4 and ZFL cell lines; Danio rerio, log10, read-out: Mean log IC50nom (converted)) was 9.12 µM and the “Mean log IC50nom” value (ZF4 and ZFL cell lines; log10, listed as Dor) was -5.037 M. The IC50 ([8]; NR-abs - ZFL, log10 of IC50, read-out: LogIC50 (converted)) was 4.52 µM, the IC50 ([8]; NR-abs - ZFL, read-out: IC50) was 4.52 µM and the IC50 ([8]; ZFL, 48 h exposure, nominal, log10, read-out: logIC50 (log10 IC50;nom) NRa (converted)) was 4.57 µM. It also gave an IC50 ([8]; ZFL, 48 h exposure, nominal, read-out: IC50;nom NRa) of 4.52 µM, an IC50 ([9]; NR-fluo - ZF4, log10 of IC50, read-out: LogIC50 (converted)) of 15.3 µM and an IC50 ([9]; NR-fluo - ZF4, read-out: IC50) of 15.3 µM. For the same compound, the IC50 ([9]; ZF4, 48 h exposure, nominal, log10, read-out: logIC50 (log10 IC50;nom) NRf (converted)) was 15.5 µM, the IC50 ([9]; ZF4, 48 h exposure, nominal, read-out: IC50;nom NRf) was 15.3 µM and the AC50 [10] was 1.87 µM. It also gave an IC50 ([11]; AB - ZFL, log10 of IC50, read-out: LogIC50 (converted)) of 6.74 µM, an IC50 ([11]; AB - ZFL, read-out: IC50) of 6.74 µM and an IC50 ([11]; ZFL, 48 h exposure, nominal, log10, read-out: logIC50 (log10 IC50;nom) AB (converted)) of 6.76 µM. The IC50 ([11]; ZFL, 48 h exposure, nominal, read-out: IC50;nom AB) was 6.74 µM, the IC50 ([12]; ATP - ZFL, log10 of IC50, read-out: LogIC50 (converted)) was 15.9 µM and the IC50 ([12]; ATP - ZFL, read-out: IC50) was 15.9 µM. It also gave an IC50 ([12]; ZFL, 48 h exposure, nominal, log10, read-out: logIC50 (log10 IC50;nom) ATP (converted)) of 15.8 µM, an IC50 ([12]; ZFL, 48 h exposure, nominal, read-out: IC50;nom ATP) of 15.9 µM and an IC50 ([13]; CFDA - ZF4, log10 of IC50, read-out: LogIC50 (converted)) of 16.8 µM. It also gave an IC50 ([13]; CFDA - ZF4, read-out: IC50) of 16.8 µM, an IC50 ([13]; ZF4, 48 h exposure, nominal, log10, read-out: logIC50 (log10 IC50;nom) CFDA (converted)) of 17 µM and an IC50 ([13]; ZF4, 48 h exposure, nominal, read-out: IC50;nom CFDA) of 16.8 µM. The IC50 ([14]; BCA - ZFL, log10 of IC50, read-out: LogIC50 (converted)) was 4.44 µM, the IC50 ([14]; BCA - ZFL, read-out: IC50) was 4.44 µM and the IC50 ([14]; ZFL, 48 h exposure, nominal, log10, read-out: logIC50 (log10 IC50;nom) BCA (converted)) was 4.47 µM. It also gave an IC50 ([14]; ZFL, 48 h exposure, nominal, read-out: IC50;nom BCA) of 4.44 µM, an IC50 ([15]; AB - ZF4, log10 of IC50, read-out: LogIC50 (converted)) of 17.1 µM and an IC50 ([15]; AB - ZF4, read-out: IC50) of 17.1 µM. The IC50 ([15]; ZF4, 48 h exposure, nominal, log10, read-out: logIC50 (log10 IC50;nom) AB (converted)) was 17 µM, the IC50 ([15]; ZF4, 48 h exposure, nominal, read-out: IC50;nom AB) was 17.1 µM and the IC50 ([16]; NR-fluo - ZFL, log10 of IC50, read-out: LogIC50 (converted)) was 5.08 µM. For the same compound, the IC50 ([16]; NR-fluo - ZFL, read-out: IC50) was 5.08 µM, the IC50 ([16]; ZFL, 48 h exposure, nominal, log10, read-out: logIC50 (log10 IC50;nom) NRf (converted)) was 5.13 µM and the IC50 ([16]; ZFL, 48 h exposure, nominal, read-out: IC50;nom NRf) was 5.08 µM. The EC50 (zebrafish embryos [17]; 144 hpf, converted) was 0.645 µM, the “logEC50 144 hpf” value (zebrafish embryos [17]; log10) was -6.19 M and the BCF [18] was 5.26. For the same compound, the Physiological charge [18] was 0, the logKoa [18] was 9.63 and the logKow [18] was 5.24. The “pKa (Strongest Acidic)” value [18] was 12.47, the “pKa (Strongest Basic)” value [18] was -3.4 and the “w_solubility (water solubility)” value [18] was 39.5 µM. For the same compound, the IC50 ([19]; CFDA - ZFL, log10 of IC50, read-out: LogIC50 (converted)) was 9.33 µM, the IC50 ([19]; CFDA - ZFL, read-out: IC50) was 9.33 µM and the IC50 ([19]; ZFL, 48 h exposure, nominal, log10, read-out: logIC50 (log10 IC50;nom) CFDA (converted)) was 9.33 µM. For the same compound, the IC50 ([19]; ZFL, 48 h exposure, nominal, read-out: IC50;nom CFDA) was 9.33 µM.
